The target in experiment [1] is Exportin-1 (Homo sapiens) (UniProt O14980). Nature of the experiment: Inhibition of CRM1-mediated nuclear export of Rio2 in human HeLa cells at 2 uM. Type of experiment: cell-based.
Experiment [2] shares this target. Put plainly: Inhibition of CRM1-mediated nuclear export of Rio2 in human HeLa cells at 1 uM. Type of experiment: cell-based.
For experiment [3], the system named is MDA-MB-231. Put plainly: Cytotoxicity against human MDA-MB-231 cells. Type of experiment: functional, cell-based.
Experiment [4] has as its system MDA-MB-231. Nature of the experiment: Induction of apoptosis in human MDA-MB-231 cells. Type of experiment: functional, cell-based.

Results on 5 compounds are retold here after ChEMBL document CHEMBL1158550, “The cytotoxic styryl lactone goniothalamin is an inhibitor of nucleocytoplasmic transport” (Bioorg Med Chem Lett, 2010).

pIC50: −log10 of the molar value. Activity calls are given as the source filed them. The calls are words filed in the database; no cut-off is given here.

Sequence of Exportin-1 (Homo sapiens) (O14980 whole entry): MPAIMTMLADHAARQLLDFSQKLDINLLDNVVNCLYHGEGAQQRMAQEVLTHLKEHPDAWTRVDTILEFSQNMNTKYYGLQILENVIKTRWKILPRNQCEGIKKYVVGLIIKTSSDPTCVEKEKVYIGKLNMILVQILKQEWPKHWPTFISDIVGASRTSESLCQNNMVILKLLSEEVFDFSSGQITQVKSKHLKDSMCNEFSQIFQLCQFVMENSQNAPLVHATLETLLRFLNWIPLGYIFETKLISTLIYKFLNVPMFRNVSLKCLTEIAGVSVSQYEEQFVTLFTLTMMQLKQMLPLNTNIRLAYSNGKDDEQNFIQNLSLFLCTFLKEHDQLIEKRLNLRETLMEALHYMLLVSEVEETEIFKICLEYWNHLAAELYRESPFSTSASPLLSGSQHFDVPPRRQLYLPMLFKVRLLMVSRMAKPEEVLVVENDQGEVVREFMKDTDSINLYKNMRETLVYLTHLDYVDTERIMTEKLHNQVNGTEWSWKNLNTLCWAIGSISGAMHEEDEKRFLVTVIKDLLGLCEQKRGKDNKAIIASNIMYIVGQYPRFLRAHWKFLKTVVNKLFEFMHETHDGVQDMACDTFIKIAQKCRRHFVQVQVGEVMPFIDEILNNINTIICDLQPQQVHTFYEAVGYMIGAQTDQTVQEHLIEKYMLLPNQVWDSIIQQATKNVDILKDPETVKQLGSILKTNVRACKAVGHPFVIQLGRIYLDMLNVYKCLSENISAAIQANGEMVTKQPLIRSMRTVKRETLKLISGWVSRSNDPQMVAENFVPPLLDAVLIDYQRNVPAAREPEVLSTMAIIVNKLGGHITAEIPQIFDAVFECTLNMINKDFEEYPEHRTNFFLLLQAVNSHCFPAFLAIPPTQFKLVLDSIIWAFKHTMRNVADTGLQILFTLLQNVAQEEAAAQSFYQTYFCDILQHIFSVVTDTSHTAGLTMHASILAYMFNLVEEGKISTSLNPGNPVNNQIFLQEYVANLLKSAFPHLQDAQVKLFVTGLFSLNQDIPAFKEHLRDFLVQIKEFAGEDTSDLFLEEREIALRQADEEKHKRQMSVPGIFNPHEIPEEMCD

In the case of `O=C1C=CC[C@H](c2ccccc2)O1`, the inhibition entry in experiment [1] is “inactive”.

`O=C1C=CC[C@H](C#C/C=C/c2ccccc2)O1`: the inhibition entry in experiment [1] was “inactive”.

In the case of `O=C1C=CC[C@H](Cc2ccccc2)O1`, the inhibition entry in experiment [1] is “inactive”.

By pIC50 is commonly meant −log10 of the IC50, conventionally taken in molar units. A high value points to a small IC50. Consider `O=C1C=CC[C@H](/C=C/c2ccccc2)O1` [GONIOTHALAMIN], for which the inhibition entry in experiment [2] is “Active”. The compound further gave a negative-log IC50 (pIC50) in the experiment on MDA-MB-231 [3] of 5.84. Also, the result in the experiment with MDA-MB-231 [4] was Active.

For the compound `O=C1C=CC[C@H](c2ccc(-c3ccccc3)cc2)O1`, in experiment [1], the inhibition entry is “inactive”.
